system: HCV 1b-377-neo replicon cells; test: HCV replicon assay, HCV 1b-377-neo replicon cells (1b FRET); type: cell-based, Hepatitis C virus genotype 1b; conditions: HCV 1b-377-neo replicon cells; HCV 1b genotype; read-out: EC50 range against HCV 1b (Table 2, Range)
Procedure, shortened: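 Compounds were tested in genotype 1b subgenomic replicon cells carrying a neomycin marker, alongside a matched replicon line with an NS5A Y2065H substitution that confers resistance to a reference NS5A inhibitor.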

Structure (SMILES)	EC50
O=C(OCc1ccccc1)N1CCN(C(C(=O)N2CCC[C@H]2c2ncc(-c3ccc(-c4ccc(-c5c[nH]c([C@@H]6CCCN6C(=O)[C@H]6CCCO6)n5)cc4)cc3)[nH]2)c2ccccc2)CC1 (single isomer, unassigned) [Example 103-5]	0.001 to 0.999 nM
COC(=O)N[C@@H](CCN1CCOCC1)C(=O)N1CCC[C@H]1c1ncc(-c2ccc(-c3ccc(-c4cnc([C@@H]5CCCN5C(=O)[C@@H](NC(=O)OC)C(C)C)[nH]4)cc3)cc2)[nH]1 [Example M68]	100 to 999 nM

same assay, conditions: Hepatitis C virus, HCV 1b-377-neo replicon cells; HCV 1b genotype; read-out: EC50 range against HCV 1b (Table 2, Range)

Structure (SMILES)	EC50
COC(=O)N[C@@H](C(=O)N1CCC[C@H]1c1ncc(-c2ccc(-c3ccc(-c4cnc([C@@H]5CCCN5C(=O)N5CCOCC5)[nH]4)cc3)cc2)[nH]1)c1ccccc1 [Example 78, methyl ((1R)-2-((2S)-2-(5-(4′-(2-((2S)-1-(4-morpholinylcarbonyl)-2-pyrrolidinyl)-1H-imidazol-5-yl)-4-biphenylyl)-1H-imidazol-2-yl)-1-pyrrolidinyl)-2-oxo-1-phenylethyl)carbamate]	0.001 to 0.999 nM
CCNC(=O)N1CCC[C@H]1c1ncc(-c2ccc(-c3ccc(-c4cnc([C@@H]5CCCN5C(=O)[C@H](NC(=O)OC)c5ccccc5)[nH]4)cc3)cc2)[nH]1 [Example 108, methyl ((1R)-2-((2S)-2-(5-(4′-(2-((2S)-1-(ethylcarbamoyl)-2-pyrrolidinyl)-1H-imidazol-5-yl)-4-biphenylyl)-1H-imidazol-2-yl)-1-pyrrolidinyl)-2-oxo-1-phenylethyl)carbamate]	0.001 to 0.999 nM
CN(C)[C@@H](C(=O)N1CCC[C@H]1c1ncc(-c2ccc(-c3ccc(-c4cnc([C@@H]5CCCN5C(=O)[C@@H](c5ccccc5)N(C)C)[nH]4)cc3C(F)(F)F)cc2)[nH]1)c1ccccc1 [Example 130]	0.001 to 0.999 nM
CN(C)C(=O)N[C@@H](C(=O)N1CCC[C@H]1c1nc(-c2ccc(-c3ccc(-c4c[nH]c([C@@H]5CCCN5C(=O)[C@H](NC(=O)N(C)C)c5ccccc5)n4)cc3)cc2)c[nH]1)c1ccccc1 [Example 24-4a, N′,N′′′-(4,4′-biphenyldiylbis(1H-imidazole-4,2-diyl(2S)-2,1-pyrrolidinediyl((1R)-2-oxo-1-phenyl-2,1-ethanediyl)))bis(1,1-dimethylurea)]	0.001 to 0.999 nM
COC(=O)N[C@@H](C(=O)N1CCC[C@H]1c1ncc(-c2ccc(-c3ccc(-c4cnc([C@@H]5CCCN5C(=O)c5cncn5C)[nH]4)cc3)cc2)[nH]1)c1ccccc1 [Example 49, methyl ((1R)-2-((2S)-2-(5-(4′-(2-((2S)-1-((1-methyl-1H-imidazol-5-yl)carbonyl)-2-pyrrolidinyl)-1H-imidazol-5-yl)-4-biphenylyl)-1H-imidazol-2-yl)-1-pyrrolidinyl)-2-oxo-1-phenylethyl)carbamate]	0.001 to 0.999 nM
COC(=O)N[C@@H](C)C(=O)N1C[C@@H](O)C[C@H]1c1ncc(-c2ccc(-c3ccc(-c4cnc([C@@H]5C[C@H](O)CN5C(=O)[C@H](C)NC(=O)OC)[nH]4)cc3)cc2)[nH]1 [JG-8, methyl ((1S)-2-((2S,4S)-4-hydroxy-2-(5-(4′-(2-((2S,4S)-4-hydroxy-1-(N-(methoxycarbonyl)-L-alanyl)-2-pyrrolidinyl)-1H-imidazol-5-yl)-4-biphenylyl)-1H-imidazol-2-yl)-1-pyrrolidinyl)-1-methyl-2-oxoethyl)carbamate]	0.001 to 0.999 nM
Cc1cc(CC(=O)N2CCC[C@H]2c2ncc(-c3ccc(-c4ccc(-c5cnc([C@@H]6CCCN6C(=O)[C@@H](c6ccccc6)N6CCCCC6)[nH]5)cc4)cc3)[nH]2)n[nH]1 [Example 107-16, 1-((1R)-2-((2S)-2-(5-(4′-(2-((2S)-1-((5-methyl-1H-pyrazo1-3-yl)acetyl)-2-pyrrolidinyl)-1H-imidazol-5-yl)-4-biphenylyl)-1H-imidazol-2-yl)-1-pyrrolidinyl)-2-oxo-1-phenylethyl) piperidine]	0.001 to 0.999 nM
COC(=O)N[C@H](C(=O)N1CCC[C@H]1c1nc(-c2ccc(-c3ccc(-c4c[nH]c([C@@H]5CCCN5C(=O)[C@@H](NC(=O)O[C@@H]5CCOC5)C(C)C)n4)cc3)cc2)c[nH]1)C(C)C [Example F56, (3R)-tetrahydro-3-furanyl ((1S)-1-(((2S)-2-(4-(4′-(2-((2S)-1-(N-(methoxycarbonyl)-L-valyl)-2-pyrrolidinyl)-1H-imidazol-4-yl)-4-biphenylyl)-1H-imidazol-2-yl)-1-pyrrolidinyl)carbonyl)-2-methylpropyl)carbamate]	0.001 to 0.999 nM
CN(C)C(C(=O)N1CCC[C@H]1c1ncc(-c2ccc(-c3ccc(-c4cnc([C@@H]5CCCN5C(=O)[C@@H](c5ccccc5)N(C)C)[nH]4)cc3)cc2)[nH]1)c1cccnc1 (stereo partly drawn) [Example 94-45, 2-((2S)-2-(5-(4′-(2-((2S)-1-((2R)-2-(dimethylamino)-2-phenylacetyl)-2-pyrrolidinyl)-1H-imidazol-5-yl)-4-biphenylyl)-1H-imidazol-2-yl)-1-pyrrolidinyl)-N,N-dimethyl-2-oxo-1-(3-pyridinyl)ethanamine]	0.001 to 0.999 nM
CCN(CC)[C@@H](C(=O)N1CCC[C@H]1c1ncc(-c2ccc(-c3ccc(-c4cnc([C@@H]5CCCN5C(=O)[C@@H](NC(=O)OC)C(C)C)[nH]4)c(F)c3)cc2)[nH]1)c1ccccc1 [Example D35, methyl ((1S)-1-(((2S)-2-(5-(4′-(2-((2S)-1-((2R)-2-(diethylamino)-2 - phenylacetyl)-2-pyrrolidinyl)-1H-imidazol-5-yl)-3-fluoro-4-biphenylyl)-1H-imidazol-2-yl)-1-pyrrolidinyl)carbonyl)-2-methylpropyl) carbamate]	0.001 to 0.999 nM
COC(=O)N[C@@H](C)C(=O)N1CCC[C@H]1c1ncc(-c2ccc(-c3ccc(-c4nc([C@@H]5CCCN5C(=O)[C@H](C)NC(=O)OC)[nH]c4C)cc3)cc2)[nH]1 [Example E5d, methyl ((1S)-2-((2S)-2-(4-(4′-(2-((2S)-1-(N-(methoxycarbonyl)-L-alanyl)-2-pyrrolidinyl)-4-methyl-1H-imidazol-5-yl)-4-biphenylyl)-1H-imidazol-2-yl)-1-pyrrolidinyl)-1-methyl-2-oxoethyl)carbamate]	0.001 to 0.999 nM
CCN(CC)[C@@H](C(=O)N1CCC[C@H]1c1ncc(-c2ccc(-c3ccc(-c4cnc([C@@H]5CC(F)(F)CN5C(=O)[C@@H](c5ccccc5)N(CC)CC)[nH]4)cc3)cc2)[nH]1)c1ccccc1 (mixture of isomers) [OL-13, rac-(1R)-2-((2S)-2-(4-(4′-(2-((2S)-1-((2R)-2-(diethylamino)-2-phenylacetyl)-4,4-difluoro-2-pyrrolidinyl)-1H-imidazol-4-yl)-4-biphenylyl)-1H-imidazol-2-yl)-1-pyrrolidinyl)-N,N-diethyl-2-oxo-1-phenylethanamine]	0.001 to 0.999 nM
COC(=O)N[C@H](C(=O)N1CCC[C@H]1c1ncc(-c2ccc(-c3ccc(-c4cnc([C@@H]5CCCN5C(=O)[C@@H](Nc5n[nH]c(N)n5)C(C)C)[nH]4)cc3)cc2)[nH]1)C(C)C	0.001 to 0.999 nM
COC(=O)N[C@H](Cc1ccccc1)C(=O)N1CCC[C@H]1c1ncc(-c2ccc(-c3ccc(-c4cnc([C@@H]5CCCN5C(=O)[C@@H](Cc5ccccc5)NC(=O)OC)[nH]4)cc3)cc2)[nH]1 [cj-145, methyl ((1R)-1-benzyl-2-((2S)-2-(5-(4′-(2-((2S)-1-((2R)-2-((methoxycarbonyl)amino)-3-phenylpropanoyl)-2-pyrrolidinyl)-1H-imidazol-5-yl)-4-biphenylyl)-1H-imidazol-2-yl)-1-pyrrolidinyl)-2-oxoethyl)carbamate]	1 to 99 nM
CCOC(=O)N[C@H](C(=O)N1CCC[C@H]1c1nc(-c2ccc(-c3ccc(-c4c[nH]c([C@@H]5CCCN5C(=O)[C@@H](NC(=O)OCC)C(C)C)n4)cc3)cc2)c[nH]1)C(C)C [Example F25, ethyl ((1S)-1-(((2S)-2-(4-(4′-(2-((2S)-1-((2S)-2-((ethoxycarbonyl)amino)-3-methylbutanoyl)-2-pyrrolidinyl)-1H-imidazol-4-yl)-4-biphenylyl)-1H-imidazol-2-yl)-1-pyrrolidinyl)carbonyl)-2-methylpropyl)carbamate]	0.001 to 0.999 nM
COC(=O)N[C@H](C(=O)N1CCC[C@H]1c1ncc(-c2ccc(-c3ccc(-c4cnc([C@@H]5CCCN5C(=O)[C@@H](N)C(C)C)[nH]4)cc3)cc2)[nH]1)C(C)C [Example M108, methyl ((1S)-2-methyl-1-(((2S)-2-(5-(4′-(2-((2S)-1-L-valyl-2-pyrrolidinyl)-1H-imidazol-5-yl)-4-biphenylyl)-1H-imidazol-2-yl)-1-pyrrolidinyl)carbonyl)propyl)carbamate]	1 to 99 nM
COC(=O)N[C@H](C(=O)N1CCC[C@H]1c1ncc(-c2ccc(-c3ccc(-c4cnc([C@@H]5CCCN5C(=O)[C@@H](Nc5ccncn5)C(C)C)[nH]4)cc3)cc2)[nH]1)C(C)C [cj-15d, methyl ((1S)-2-methyl-1-(((2S)-2-(5-(4′-(2-((2S)-1-(N-4-pyrimidinyl-L-valyl)-2-pyrrolidinyl)-1H-imidazol-5-yl)-4-biphenylyl)-1H-imidazol-2-yl)-1-pyrrolidinyl)carbonyl)propyl)carbamate]	0.001 to 0.999 nM
O=C([C@H](O)c1ccccc1)N1CCC[C@H]1c1ncc(-c2ccc(-c3ccc(-c4cnc([C@@H]5CCCN5C(=O)[C@H](O)c5ccccc5)[nH]4)cc3)cc2)[nH]1 [Example 2, (1R,1′R)-2,2′-(4,4′-biphenyldiylbis(1H-imidazole-5,2-diyl(2S)-2,1-pyrrolidinediyl))bis(2-oxo-1-phenylethanol)]	0.001 to 0.999 nM
COC(=O)N[C@@H](C(=O)N1CCC[C@H]1c1ncc(-c2ccc(-c3ccc(-c4cnc([C@@H]5CCCN5C(=O)[C@@H]5C[C@@H](F)CN5)[nH]4)cc3)cc2)[nH]1)c1ccccc1 [Example 82, methyl ((1R)-2-((2S)-2-(5-(4′-(2-((2S)-1-((4R)-4-fluoro-L-prolyl)-2-pyrrolidinyl)-1H-imidazol-5-yl)-4-biphenylyl)-1H-imidazol-2-yl)-1-pyrrolidinyl)-2-oxo-1-phenylethyl)carbamate]	0.001 to 0.999 nM
